In patent US7531546B2, “Spiro-substituted pyrrolo[2,3-D]pyrimidines as cathepsin inhibitors” (Novartis AG, priority 2003, dated 2009):

How the values were obtained:
[1] = molecular target: T1, recombinant human cathepsin K (Homo sapiens, UniProt P43235); test: in vitro inhibition of recombinant human cathepsin K; format: biochemical; details: recombinant enzyme, substrate Z-Phe-Arg-AMCA, pH 7.0, 30 min preincubation, fluorescence readout
T1 sequence (P43235 115-329): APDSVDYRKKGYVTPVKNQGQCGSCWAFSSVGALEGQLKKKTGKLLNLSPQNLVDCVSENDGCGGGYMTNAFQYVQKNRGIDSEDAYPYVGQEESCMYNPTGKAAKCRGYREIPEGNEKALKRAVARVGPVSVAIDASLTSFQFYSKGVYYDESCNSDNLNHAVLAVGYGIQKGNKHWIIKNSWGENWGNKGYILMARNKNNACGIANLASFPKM
Procedure: The in vitro assay is carried out as follows:
The assay is performed in 96 well microtiter plates at ambient temperature using recombinant human cathepsin K. Inhibition of cathepsin K is assayed at a constant enzyme (0.16 nM) and substrate concentration ([…] Z-Phe-Arg-AMCA—Peptide Institute Inc. Osaka, Japan) in 100 mM sodium phosphate buffer, pH 7.0, containing 2 mM dithiothreitol, 20 mM Tween 80 and 1 mM EDTA. Cathepsin K is preincubated with the inhibitors for 30 min, and the reaction is initiated by the addition of substrate. After 30 min incubation the reaction is stopped by the addition of E-64 (2 mM), and fluorescence intensity is read on a multi-well plate reader at excitation and emission wavelengths of 360 and 460 nm, respectively.

[2] = molecular target: recombinant human cathepsin S (Homo sapiens, UniProt P25774); test: in vitro inhibition of recombinant human cathepsin S; format: biochemical; details: recombinant enzyme 0.04 nM, substrate Z-Leu-Leu-4-methylcoumaryl-7-amide, pH 7.0, fluorescence readout
Procedure: The in vitro assay is carried out in clear, flat-bottomed, 96-well microtiter plates (Greiner GmbH, Germany) at ambient temperature using recombinant human cathepsin S. Inhibition of human cathepsin S is assayed at a constant enzyme and various substrate concentrations (substrate is Z-Leu-Leu-4-methylcoumaryl-7-amide (Bachem (Switzerland)) in 100 parts 0.2M sodium phosphate, pH 7.0, containing 2 mM EDTA, 2 parts 1% Triton X-100, 10 parts 20 mM dithiothreitol (DTT) and 58 parts distilled water. The assay is started by adding the enzyme solution (13 times higher concentration of final concentration of recombinant human Cathepsin S) to the reaction mixture containing various concentrations of the corresponding substrate and the compound. Substrate concentrations between 3.4 and 17 μM are used. The recombinant human Cathepsin S is used at a final concentration of 0.04 nM. Test compounds are used at concentrations between 0.4 and 2 times the determined IC50 of the compound at the enzyme. The relative fluorescence is continuously measured for 30 minutes and the initial velocity is obtained from each progress curve. […]

Sequence of recombinant human cathepsin S (P25774 115-331): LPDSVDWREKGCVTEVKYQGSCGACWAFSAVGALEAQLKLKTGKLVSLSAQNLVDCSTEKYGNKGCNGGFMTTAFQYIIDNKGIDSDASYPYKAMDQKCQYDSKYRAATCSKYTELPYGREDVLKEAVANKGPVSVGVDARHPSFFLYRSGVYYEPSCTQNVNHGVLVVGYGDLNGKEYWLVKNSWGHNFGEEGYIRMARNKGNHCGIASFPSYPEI

IC50 [1] [nM]	IC50 [2] [nM]	SMILES
16	10	CC(=O)N1CCC2(CC1)C(=O)N(Cc1cc3cnc(C#N)nc3n1CCC(C)(C)C)c1ccccc12 [Example 4-9]
	~9	CC(=O)N1CCC2(CC1)C(=O)N(Cc1cc3cnc(C#N)nc3n1CCC1CCCCC1)c1ccccc12 [Example 4-8]
~0.16		CC(C)(C)Cn1c(CN2C(=O)CC3(CCNCC3)C2=O)cc2cnc(C#N)nc21 [Example 3-0, 7-(2,2-Dimethyl-propyl)-6-(1,3-dioxo-2,8-diaza-spiro[4.5]dec-2-ylmethyl)-7H-pyrrolo[2,3-d]pyrimidine-2-carbonitrile]
8	6	CC(C)(C)CCn1c(CN2CCC3(CCN(S(C)(=O)=O)CC3)C2)cc2cnc(C#N)nc21 [Example 4-3]
